Data taken from article PMC9920260, “Chemical Modification of Auranofin Yields a New Family of Anticancer Drug Candidates: The Gold(I) Phosphite Analogues” (Molecules, 2023).
Where two headings read alike, the source gives them in different places.

Legend:
[1] = Water solubility by quantitative 1H NMR of saturated solution; assay type: physicochemical; settings: saturated solution in D2O, heated to 40 °C and sonicated 90 min, cooled to room temperature, quantitative 1HNMR vs Me2SO2
Protocol: (§1) For determining the solubility of investigated compounds, 5 mg of the selected gold(I) complex was suspended in an Eppendorf test tube with 300 μL of D2O and 300 μL of a Me2SO2/D2O solution 6.94 mM (Me2SO2 final conc. 3.47 mM). The suspension was heated to 40 °C and sonicated for 90 min. The resulting saturated solution was left to cool to room temperature, decanted, transferred to an NMR tube and then analyzed through quantitative ^1HNMR spectroscopy (tilt angle = 45°; recycle delay = 4 s; number of scans = 16). The concentration (solubility) was calculated by the relative integral (related to phosphine or phosphite -CH3 groups) with respect to Me2SO2 singlet (δ = 3.14 ppm). LogP values were determined through a modification of the shake-flask method reported in [22]. More precisely, in a 15 mL Falcon tube, roughly 2 mg of the sample was added in 2 mL of n-octanol-saturated water and 2 mL of water-saturated n-octanol. The mixture was hand shaken for ten minutes, and then 0.5 mL of each phase were moved in two different mineralization tubes together with 1 mL of metal-free concentrated nitric acid. The mixtures were heated overnight at 90 °C, then diluted with 4.5 mL of ultrapure water. The gold concentration in each sample was determined through ICP-OES and the respective LogP values were calculated through the ratio between octanol and water gold concentrations.

[2] = design: method as in PMID 29057040; settings: reported values; cited from earlier work
[3] = system: thioredoxin reductase (TrxR); design: method as in PMID 32497830; settings: auranofin, previously demonstrated; cited from earlier work
[4] = system: cisplatin-resistant A2780 (A2780R) ovarian cancer cells; assay: MTT cytotoxicity assay, A2780R; assay type: cell-based, human; settings: 72 h of treatment, three independent experiments
Protocol: (§2) RPMI 1640 cell culture medium, fetal bovine serum (FBS), and phosphate-buffered saline (PBS) were obtained from Euroclone (Milan, Italy). Thiazolyl blue tetrazolium bromide (MTT) was obtained from Merck Life Science (Milan, Italy). The human ovarian cancer cell lines A2780, A2780/CDDP-R (cisplatin-resistant) and SKOV3 were obtained from ATCC. Cell lines were maintained in RPMI-1640 supplemented with 10% fetal calf serum (FCS) and antibiotics (penicillin, 100 U/mL; streptomycin, 100 μg/mL) at 37 °C in a 5% CO2 humidified atmosphere and subcultured twice weekly. Split 1:5 (3–6 × 10^4 cells per mL).
(§3) The cytotoxic effects of auranofin analogues on ovarian cancer cell lines were determined by using the colourimetric MTT (3-(4,5-dimethylthiazol-2-yl)-2,5-diphenyltetrazolium bromide) assay. Viable cells can metabolize MTT into formazan, a blue-coloured compound that is detectable at 595 nm. […] Following precipitation, blue formazan was dissolved in 100 µL of DMSO, and the optical density was read in a microplate reader interfaced with Microplate Manager/PV version 4.0 software (BioRad Laboratories, Hercules, CA, USA). From the absorbance measurements, the half-maximal inhibitory concentration (IC50) value of each compound on ovarian cancer cells was calculated using GraphPad Prism software version 6.0 (Graphpad Holdings, LLC, Boston, MA, USA). […]

[5] = LogP, modified shake-flask method with ICP-OES gold determination; assay type: physicochemical; settings: n-octanol/water, gold concentration by ICP-OES
Protocol: as §1

[6] = system: thioredoxin reductase (TrxR); settings: A2780 cells, 24 h of treatment at the 72 h exposure IC50 dose
Protocol: The analysis was performed in triplicate.
Experiments were performed in triplicate.

[7] = system: A2780 ovarian cancer cells; assay: MTT cytotoxicity assay, A2780; assay type: cell-based, human; settings: A2780, 72 h of treatment, three independent experiments
Protocol: as §2, §3

[8] = system: SKOV-3 ovarian cancer cells; assay: MTT cytotoxicity assay, SKOV-3; assay type: cell-based, human; settings: SKOV-3, 72 h of treatment, three independent experiments
Protocol: as §2, §3

Compound | Water solubility [1] | LogP [2] | inhibition of TrxR activity [3] | IC50 [4] | LogP [5] | residual TrxR enzyme activity with respect to controls [6] | IC50 [7] | IC50 [8]
CCP(CC)CC.[Au+].[Cl-] [Au(PEt3)Cl] | 0.68 millimolar | 1.7 |  |  |  |  |  | 
CC(=O)OC[C@H]1O[C@@H]([S-])[C@H](OC(C)=O)[C@@H](OC(C)=O)[C@@H]1OC(C)=O.CCP(CC)CC.[Au+] [auranofin, 1-Thio-β-D-glucopyranosatotriethylphosphine gold-2,3,4,6-tetraacetate] | 0.34 millimolar | 1.6 | 40–50% |  |  |  |  | 
CC[P](CC)(CC)[Au][I] [Au(PEt3)I] | 0.08 millimolar | 4.6 |  |  |  |  |  | 
CO[PH](OC)(OC)[Au][S]C1OC(COC(C)=O)C(OC(C)=O)C(OC(C)=O)C1OC(C)=O (stereo not shown) [AuP(OCH3)3SAtg] | 2.76 millimolar |  |  | 2.98 ± 0.23 µM | −0.7 | about 55% | 1.26 ± 0.22 µM | 2.44 ± 0.32 µM
